Experimental data as given in patent US5419898A, “Antiallergic composition for ophthalmic or nasal use” (priority 1992, dated 1995).
Counter-ions that a name gives are not always drawn.

Test system: histamine-induced conjunctivitis
Test: Effect on rat histamine-induced conjunctivitis
Type: in vivo, Male Wistar rats
Conditions: 0.5 w/v % cetirizine hydrochloride; 3 μl per eye 40 and 20 minutes before histamine
Experimental: Male Wistar rats of about 100 g in weight were injected subconjunctivally each with 50 μl of 0.1 w/v % histamine at the upper eyelid. Each of the following test ophthalmic compositions in solution form was instilled into both eyes of the rats in the corresponding group at a dose of 3 μl for each eye 40 and 20 minutes before the histamine injection. The rats were sacrificed one hour after the histamine injection. The palpebral conjunctival edema weight was measured, and the edema inhibition rate was calculated using the edema weight of the physiological saline group as the maximal response.

Q: How did the edema inhibition rate turn out when `O=C(O)COCCN1CCN(C(c2ccccc2)c2ccc(Cl)cc2)CC1` (stereo not shown) [cetirizine hydrochloride] was run?
A: Its edema inhibition rate is “about 88.8%”.
